Measured values taken from US20240376056A1, “PHENYL ACETAMIDE BASED IL-17A MODULATORS AND USES THEREOF” (DiCE Alpha, Inc., priority 2021, published 2024).

target: T1, IL-17A/A (Homo sapiens, UniProt Q16552); assay: HEK-Blue IL-17A/A inhibition assay (SEAP reporter); assay type: cell-based; details: HEK-Blue cells (HEK 293 expressing IL-17RA, IL-17RC, Act1); IL-17A/A stimulation; 20 hours; SEAP read at A630; 4-parameter fit
T1 construct: purchased Genscript Z03228
T1 sequence (Q16552 24-155): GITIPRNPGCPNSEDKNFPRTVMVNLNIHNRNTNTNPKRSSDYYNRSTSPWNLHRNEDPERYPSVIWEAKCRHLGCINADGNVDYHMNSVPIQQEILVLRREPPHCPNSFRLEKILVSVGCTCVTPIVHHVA
Method in brief: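 IC50 from a 4-parameter fit of SEAP signal (Quanti-Blue, A630) after 20 h co-incubation of compound and IL-17A/A. Reporter line: HEK 293 expressing IL-17RA, IL-17RC and Act1 with NFκB-SEAP; compound top final 10, 1 or 0.3 uM, DMSO 0.1% final.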

Row | Compound | IC50
1 | CC(C(=O)NCC(F)(F)F)c1cc(F)c(NC(=O)[C@@H](NC(=O)c2ccnn2C(C)C)C(C2CC2)C2CC2)cc1C1CC1 (single isomer, unassigned) [Compound 126] | 0.1 to 1 µM
2 | COc1cc(NC(=O)[C@@H](NC(=O)c2ccnn2C(C)C)C(C2CC2)C2CC2)c(F)cc1C(C)C(=O)N1CC(O)CC1C(F)(F)F (single isomer, unassigned) [Compound 212] | < 0.1 µM
3 | CC(C(=O)NCC(F)(F)F)c1cc(F)c(NC(=O)[C@@H](NC(=O)c2ccnn2C(C)C)C(C2CC2)C2CC2)cc1N1CCCC1=O (some centres unmarked) [Compound 187] | 0.1 to 1 µM
4 | CC(C)n1nccc1C(=O)N[C@H](C(=O)Nc1ccc([C@H](C)C(=O)N2CC(O)CC2C(F)(F)F)cc1F)C(C1CC1)C1CC1 (single isomer, unassigned) [Compound 145] | > 1 µM
5 | CCc1nonc1C(=O)N[C@H](C(=O)Nc1cc(C)c(C(C)C(=O)N(C)CC(F)(F)F)cc1F)C(C1CC1)C1CC1 (some centres unmarked) [Compound 205] | < 0.1 µM
6 | CC(C)n1nccc1C(=O)N[C@H](C(=O)Nc1ccc([C@H](C)C(=O)N2CCOCC2C(F)(F)F)cc1F)C(C1CC1)C1CC1 (single isomer, unassigned) [Compound 19] | 0.1 to 1 µM
7 | CC(C)n1nccc1C(=O)N[C@H](C(=O)Nc1ccc([C@H](C)C(=O)N[C@H](CO)C2CCC2)cc1F)C(C1CC1)C1CC1 [Compound 155] | > 1 µM
8 | Cc1cc(NC(=O)[C@@H](NC(=O)c2ccnn2C(C)C)C(C2CC2)C2CC2)c(F)cc1C(C)C(=O)NC(C(N)=O)C(F)(F)F (some centres unmarked) [Compound 178] | 0.1 to 1 µM
9 | COc1cc(NC(=O)[C@@H](NC(=O)c2ccnn2C(C)C)C(C2CC2)C2CC2)c(F)cc1C(C)C(=O)NCC(F)(F)F (single isomer, unassigned) [Compound 123] | < 0.1 µM
10 | CC[C@@H](c1ccc(F)cc1)[C@H](NC(=O)c1ccnn1CC)C(=O)Nc1cc(C)c(C(C)C(=O)N(C)CC(F)(F)F)cc1F (some centres unmarked) [Compound 203] | < 0.1 µM
11 | CC(C)n1nccc1C(=O)N[C@H](C(=O)Nc1ccc([C@H](C)C(=O)N2CCNCC2C(F)(F)F)cc1F)C(C1CC1)C1CC1 (stereo partly drawn) [Compound 101, N-((2S)-1,1-dicyclopropyl-3-((2-fluoro-4-((2S)-1-oxo-1-(2-(trifluoromethyl)piperazin-1-yl)propan-2-yl)phenyl)amino)-3-oxopropan-2-yl)-1-isopropyl-1 H-pyrazole-5-carboxamide] | > 1 µM
12 | CC(C)n1nccc1C(=O)N[C@H](C(=O)Nc1ccc([C@H](C)C(=O)N[C@@H](C)C(F)(F)F)cc1F)C(C1CC1)C1CC1 [Compound 55, N-((S)-1,1-dicyclopropyl-3-((2-fluoro-4-((S)-1-oxo-1-(((S)-1,1,1-trifluoropropan-2-yl)amino)propan-2-yl)phenyl)amino)-3-oxopropan-2-yl)-1-isopropyl-1H-pyrazole-5-carboxamide] | 0.1 to 1 µM
13 | CC(C)n1nccc1C(=O)N[C@H](C(=O)Nc1ccc(C(N)C(=O)NCC(F)(F)F)cc1F)C(C1CC1)C1CC1 (single isomer, unassigned) [Compound 191] | 0.1 to 1 µM
14 | Cc1cc(NC(=O)[C@@H](NC(=O)c2nonc2C2CC2)C(C2CC2)C2CC2)c(F)cc1C(C)C(=O)NCC(F)(F)F (some centres unmarked) [Compound 251] | < 0.1 µM
15 | CC(C)n1nccc1C(=O)N[C@H](C(=O)Nc1ccc([C@H](C)C(=O)NCC(F)(F)CN)cc1F)C(C1CC1)C1CC1 [Compound 100, N-((S)-1-((4-((S)-1-((3-amino-2,2-difluoropropyl)amino)-1-oxopropan-2-yl)-2-fluorophenyl)amino)-3,3-dicyclopropyl-1-oxopropan-2-yl)-1-isopropyl-1H-pyrazole-5-carboxamide] | > 1 µM

Continued, values first:

Row | IC50 | Compound
16 | 0.1 to 1 µM | CC[C@@H](c1ccc(F)cc1)[C@H](NC(=O)c1ccnn1CC)C(=O)Nc1ccc([C@H](C)C(=O)N(C)CC(F)(F)F)cc1F [Compound 85, -ethyl-N-((2S,3S)-1-((2-fluoro-4-((S)-1-(methyl(2,2,2-trifluoroethyl)amino)-1-oxopropan-2-yl)phenyl)amino)-3-(4-fluorophenyl)-1-oxopentan-2-yl)-1H-pyrazole-5-carboxamide]
17 | 0.1 to 1 µM | CC(C)n1nccc1C(=O)N[C@H](C(=O)Nc1ccc([C@H](C)C(=O)NC(c2ccccn2)C(F)(F)F)cc1F)C(C1CC1)C1CC1 (stereo partly drawn) [Compound 41, N-((2S)-1,1-dicyclopropyl-3-((2-fluoro-4-((2S)-1-oxo-1-((2,2,2-trifluoro-1-(pyridin-2-yl)ethyl)amino)propan-2-yl)phenyl)amino)-3-oxopropan-2-yl)-1-isopropyl-1 H-pyrazole-5-carboxamide]
18 | > 1 µM | CC(C)n1nccc1C(=O)N[C@H](C(=O)Nc1ccc(C(N)C(=O)NCC(F)(F)F)cc1F)C(C1CC1)C1CC1 (single isomer, unassigned) [Compound 189]
19 | < 0.1 µM | COc1cc(NC(=O)[C@@H](NC(=O)c2ccnn2C)C(C2CC2)C2CC2)c(F)cc1C(C)C(=O)N(C)CC(F)(F)F (some centres unmarked) [Compound 179]
20 | > 1 µM | CC(=O)NC1CCN(C(=O)[C@@H](C)c2ccc(NC(=O)[C@@H](NC(=O)c3ccnn3C(C)C)C(C3CC3)C3CC3)c(F)c2)C1 (stereo partly drawn) [Compound 136, N-((2S)-1-((4-((2S)-1-(3-acetamidopyrrolidin-1-yl)-1-oxopropan-2-yl)-2-fluorophenyl)amino)-3,3-dicyclopropyl-1-oxopropan-2-yl)-1-isopropyl-1H-pyrazole-5-carboxamide]
21 | > 1 µM | CC(C)n1nccc1C(=O)N[C@H](C(=O)Nc1ccc([C@H](C)C(=O)N2CC3(C2)CC(F)(F)C3)cc1F)C(C1CC1)C1CC1 [Compound 37]
22 | 0.1 to 1 µM | CC(C(=O)NCC(F)(F)F)c1cc(F)c(NC(=O)[C@@H](NC(=O)c2ccnn2C(C)C)C(C2CC2)C2CC2)cc1Cl (single isomer, unassigned) [Compound 109]
23 | < 0.1 µM | CCn1nccc1C(=O)N[C@H](C(=O)Nc1ccc([C@H](C)C(=O)N2CCC[C@H]2C(F)(F)F)cc1F)C(C1CC1)C1CC1 [Compound 11, N-((S)-1,1-dicyclopropyl-3-((2-fluoro-4-((S)-1-oxo-1-((S)-2-(trifluoromethyl)pyrrolidin-1-yl)propan-2-yl)phenyl)amino)-3-oxopropan-2-yl)-1-ethyl-1H-pyrazole-5-carboxamide]
24 | < 0.1 µM | CC(C(=O)N(CC(N)=O)CC(F)(F)F)c1ccc(NC(=O)[C@@H](NC(=O)c2ccnn2C(C)C)C(C2CC2)C2CC2)c(F)c1 (single isomer, unassigned) [Compound 137]
25 | 0.1 to 1 µM | CC(C)n1nccc1C(=O)N[C@H](C(=O)Nc1ccc([C@H](C)C(=O)NCC(C)(F)F)cc1F)C(C1CC1)C1CC1 [Compound 57, N-((S)-1,1-dicyclopropyl-3-((4-((S)-1-((2,2-difluoropropyl)amino)-1-oxopropan-2-yl)-2-fluorophenyl)amino)-3-oxopropan-2-yl)-1-isopropyl-1H-pyrazole-5-carboxamide]
26 | 0.1 to 1 µM | COc1cc(NC(=O)[C@@H](NC(=O)c2ccnn2C(C)C)C(C2CC2)C2CC2)c(F)cc1C(C)C(=O)NC(CO)C(F)(F)F (single isomer, unassigned) [Compound 181]
27 | > 1 µM | CC(C)n1nccc1C(=O)N[C@H](C(=O)Nc1ccc(C(CN2CCOCC2)C(=O)NCC(F)(F)F)cc1F)C(C1CC1)C1CC1 (single isomer, unassigned) [Compound 130]
28 | > 1 µM | CC(C)n1nccc1C(=O)N[C@H](C(=O)Nc1ccc([C@H](C)C(=O)NCC(F)(F)CNC(=O)OC(C)(C)C)cc1F)C(C1CC1)C1CC1 [Compound 35, tert-butyl (3-((S)-2-(4-((S)-3,3-dicyclopropyl-2-(1-isopropyl-1H-pyrazole-5-carboxamido)propanamido)-3-fluorophenyl)propanamido)-2,2-difluoropropyl)carbamate]
29 | < 0.1 µM | CC(C(=O)NCC(F)(F)F)c1cc(F)c(NC(=O)[C@@H](NC(=O)c2ccnn2C(C)C)C(C2CC2)C2CC2)cc1N(C)C (single isomer, unassigned) [Compound 163]
30 | > 1 µM | CCn1nccc1C(=O)N[C@H](C(=O)Nc1cc(C)c(C(C)C(=O)NCC(F)(F)F)cc1F)C1CCC(F)(F)CC1 (some centres unmarked) [Compound 217]
31 | 0.1 to 1 µM | CCn1nccc1C(=O)N[C@H](C(=O)Nc1ccc([C@H](C)C(=O)N(C)CC(F)(F)F)cc1F)C1CCC2(CC1)CC2 [Compound 75, 1-ethyl-N-((S)-2-((2-fluoro-4-((S)-1-(methyl(2,2,2-trifluoroethyl)amino)-1-oxopropan-2-yl)phenyl)amino)-2-oxo-1-(spiro[2.5]octan-6-yl)ethyl)-1H-pyrazole-5-carboxamide]
32 | 0.1 to 1 µM | CC(C)n1nccc1C(=O)N[C@H](C(=O)Nc1ccc([C@H](C)C(=O)N2CCOC2C(F)(F)F)cc1F)C(C1CC1)C1CC1 (single isomer, unassigned) [Compound 49]
33 | > 1 µM | CC(C)n1nccc1C(=O)N[C@H](C(=O)Nc1ccc([C@H](C)C(=O)N[C@H](C)C(F)(F)F)cc1F)C(C1CC1)C1CC1 [Compound 54, N-((S)-1,1-dicyclopropyl-3-((2-fluoro-4-((S)-1-oxo-1-(((R)-1,1,1-trifluoropropan-2-yl)amino)propan-2-yl)phenyl)amino)-3-oxopropan-2-yl)-1-isopropyl-1H-pyrazole-5-carboxamide]
34 | 0.1 to 1 µM | CC1CN(C(=O)[C@@H](C)c2ccc(NC(=O)[C@@H](NC(=O)c3ccnn3C(C)C)C(C3CC3)C3CC3)c(F)c2)C(C(F)(F)F)CO1 (stereo partly drawn) [Compound 135, N-((2S)-1,1-dicyclopropyl-3-((2-fluoro-4-((2S)-1-(2-methyl-5-(trifluoromethyl)morpholino)-1-oxopropan-2-yl)phenyl)amino)-3-oxopropan-2-yl)-1-isopropyl-1H-pyrazole-5-carboxamide]
35 | 0.1 to 1 µM | Cc1cc(NC(=O)[C@@H](NC(=O)c2ccnn2C(C)C)C(C2CC2)C2CC2)c(F)cc1C(C)C(=O)N1CC(O)CC1C(F)(F)F (single isomer, unassigned) [Compound 172]
